Assay results taken from PubChem BioAssay AID1963831 (Molecular Pharmacology Branch, DTP, NCI, 2024).
“And” between values parts separate entries of the source, which are not always exact repeats. Equal values may be shown once.

Test system: 889142-216-R-J1-PDC complex spheroid viability
Assay: Anticancer human tumor 889142-216-R-J1-PDC patient-derived bladder carcinoma cell line growth inhibition [POLQ]
Conditions: for viability, T/C: stronger effect = lower value
Procedure: Multicellular complex tumor spheroid response to Polymerase (POL) inhibitors (novobiocin, ART-558, RP6685) in combination with a variety of drugs and investigational agents in selected tumor cell lines
The POL inhibitors (novobiocin, ART-558, and RP6685) were evaluated both individually and in combination with standard of care and investigational anticancer small molecules within a complex spheroid model of solid tumors. . Complex spheroids include a stromal component modeled by human endothelial cells (HUVEC) and fibroblasts modeled by human mesenchymal stem cells (MSCs). The concentration ranges selected for each drug and investigational agent were based upon clinically achievable concentrations if the clinical Cmax of the agent was known.
Compounds. The drugs and investigational agents: novobiocin (NSC847541), ART-558 (NSC835418), RP-6685 (NSC848927), peposertib (NSC802822), ceralasertib (NSC780249), elimusertib (NSC800525), camonsertib (NSC841442), AZD-1390 (NSC803789), olaparib (NSC753686), talazoparib (NSC767125), rucaparib (NSC756644), sotorasib (NSC818433), MRTX-1133 (NSC836407), SN-38 (NSC673596), topotecan (NSC609699), epotoside (NSC141540), doxorubicin (NSC123127), gemcitabine (NSC613327), 5-fluorouracil (NSC19893), paclitaxel (NSC125973), vemurafenib (NSC761431), MSA-2 (NSC828583), SN-011 (NSC837082), adavosertib (NSC754352), prexasertib (NSC758257), carboplatin (NSC241240) and oxaliplatin (NSC266046), were obtained from the National Cancer Institute (NCI) Developmental Therapeutics Program Chemical Repository (21). The FDA-approved anticancer drug set is available from the Developmental Therapeutics Program at https://dtp.cancer.gov/organization/dscb/obtaining/. […] The stock solutions were prepared in dimethyl sulfoxide (DMSO, Sigma-Aldrich, St. Louis, MO, cat. D2650), except for the platinum compounds which were prepared in saline (Quality Biological, Gaithersburg, MD, cat. 114-055-101), at 800-fold the tested concentration and stored at -70 degrees C prior to their use. All drugs and investigational agents were tested over a range starting from a high concentration at or near the clinical Cmax and decreasing in half-log increments. If the clinical Cmax for an agent had not been determined, the highest concentration tested was 10 microM, except for SN-38, which was tested at a high concentration of 1 microM.
Cell Culture. All cells were maintained in an incubator at 37 degrees C and 5% CO2 with 95% humidity. The PDC lines were cultured according to standard operating procedures established by the NCI PDMR (https://pdmr.cancer.gov). Table 3 of the manuscript, lists the cell lines along with the number of the three cell types plated to form the mct-spheroids and media for tumor cell growth. After thawing, all PDC lines, except 997537-175-T-J1-PDC and 415267-285-R-J2-PDC, were cultured in Matrigel-coated flasks prepared with a working solution of 1X Ham's F-12 nutrient mix, without supplementation (Thermo Fisher Scientific, cat. 11765054), 100 U/mL penicillin-streptomycin (Thermo Fisher Scientific, cat. 15140122), and 2.5% Matrigel (Corning Inc., Corning, NY, cat. 354248) for the first three passages. The two PDC lines 997537-175-T-J1-PDC and 415267-285-R-J2-PDC were cultured on uncoated flasks. The 857933-349-R-J2-PDC line was cultured in 6C/Colon 1B media containing advanced DMEM/F-12 (Thermo Fisher Scientific, cat. 12634028), 10 mM HEPES (Thermo Fisher Scientific, cat. 15630080), 1X GlutaMAX supplement (Thermo Fisher Scientific, cat. 35050061), 0.1 mg/mL primocin (InvivoGen, San Diego, CA, cat. ant-pm-2), 10% defined fetal bovine serum, heat inactivated (HyClone Laboratories Inc., Logan, UT, cat. SH30070.03HI), 50% L-WRN conditioned media (ATCC, cat. CRL-3276), 1.25 mM N-Acetyl-L-cysteine (Sigma-Aldrich, cat. A9165), 10 mM nicotinamide (Sigma-Aldrich, cat. N0636), 1X B-27 supplement (Thermo Fisher Scientific, cat. 17504044), 1X N-2 supplement (Thermo Fisher Scientific, cat. […]
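Also: spheroids exposed to compounds for seven days.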
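For viability, T/C in this document: 100% = DMSO vehicle control viability.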

With `C=CCn1c(=O)c2cnc(Nc3ccc(N4CCN(C)CC4)cc3)nc2n1-c1cccc(C(C)(C)O)n1` + Nc1ccc(C#CCN(C(=O)Cc2ncc(C(F)(F)F)cc2C(F)(F)F)c2ccc(F)cc2)nn1 the IC50 (curve of first compound, second compound 0.0316 µM) was over 1 µM, the IC50 (curve of first compound, second compound 0.1 µM) was over 1 µM and the IC50 (curve of first compound, second compound 0.316 µM) was over 1 µM. It also gave an IC50 (curve of first compound, second compound 1 µM) of over 1 µM, an IC50 (curve of first compound, second compound 3.16 µM) of over 1 µM and an IC50 (curve of first compound, second compound 10 µM) of over 1 µM. It also gave a viability, T/C (second compound 0.0316 µM, first compound 0.00316 µM) of 113%, a viability, T/C (second compound 0.0316 µM, first compound 0.01 µM) of 118% and a viability, T/C (second compound 0.0316 µM, first compound 0.0316 µM) of 88.4%. It also gave a viability, T/C (second compound 0.0316 µM, first compound 0.1 µM) of 87.2%, a viability, T/C (second compound 0.0316 µM, first compound 0.316 µM) of 74.8% and a viability, T/C (second compound 0.0316 µM, first compound 1 µM) of 58.2%. It also gave a viability, T/C (second compound 0.1 µM, first compound 0.00316 µM) of 114%, a viability, T/C (second compound 0.1 µM, first compound 0.01 µM) of 119% and a viability, T/C (second compound 0.1 µM, first compound 0.0316 µM) of 108%. For the same compound, the viability, T/C (second compound 0.1 µM, first compound 0.1 µM) was 85.1%, the viability, T/C (second compound 0.1 µM, first compound 0.316 µM) was 64.5% and the viability, T/C (second compound 0.1 µM, first compound 1 µM) was 56.2%. It also gave a viability, T/C (second compound 0.316 µM, first compound 0.00316 µM) of 106%, a viability, T/C (second compound 0.316 µM, first compound 0.01 µM) of 79.1% and a viability, T/C (second compound 0.316 µM, first compound 0.0316 µM) of 78%. It also gave a viability, T/C (second compound 0.316 µM, first compound 0.1 µM) of 80.7%, a viability, T/C (second compound 0.316 µM, first compound 0.316 µM) of 72.5% and a viability, T/C (second compound 0.316 µM, first compound 1 µM) of 62.4%. For the same compound, the viability, T/C (second compound 1 µM, first compound 0.00316 µM) was 101%, the viability, T/C (second compound 1 µM, first compound 0.01 µM) was 83.8% and the viability, T/C (second compound 1 µM, first compound 0.0316 µM) was 99.4%. It also gave a viability, T/C (second compound 1 µM, first compound 0.1 µM) of 78.4%, a viability, T/C (second compound 1 µM, first compound 0.316 µM) of 81.1% and a viability, T/C (second compound 1 µM, first compound 1 µM) of 58.9%. The viability, T/C (second compound 3.16 µM, first compound 0.00316 µM) was 98.9%, the viability, T/C (second compound 3.16 µM, first compound 0.01 µM) was 87.4% and the viability, T/C (second compound 3.16 µM, first compound 0.0316 µM) was 98.1%. It also gave a viability, T/C (second compound 3.16 µM, first compound 0.1 µM) of 90.3%, a viability, T/C (second compound 3.16 µM, first compound 0.316 µM) of 84.5% and a viability, T/C (second compound 3.16 µM, first compound 1 µM) of 59.1%. It also gave a viability, T/C (second compound 10 µM, first compound 0.00316 µM) of 97.4%, a viability, T/C (second compound 10 µM, first compound 0.01 µM) of 96% and a viability, T/C (second compound 10 µM, first compound 0.0316 µM) of 107%. For the same compound, the viability, T/C (second compound 10 µM, first compound 0.1 µM) was 102%, the viability, T/C (second compound 10 µM, first compound 0.316 µM) was 66.4% and the viability, T/C (second compound 10 µM, first compound 1 µM) was 54.6%.
With `C=CCn1c(=O)c2cnc(Nc3ccc(N4CCN(C)CC4)cc3)nc2n1-c1cccc(C(C)(C)O)n1` the viability, T/C (compound 0.00316 µM) was 97.5% and 109% and 88.1%, the viability, T/C (compound 0.01 µM) was 87.6% and 92.1% and 104% and the viability, T/C (compound 0.0316 µM) was 97.2% and 110% and 104%. The viability, T/C (compound 0.1 µM) was 80.1% and 100% and 88.6%, the viability, T/C (compound 0.316 µM) was 57.7% and 70.7% and 79.8% and the viability, T/C (compound 1 µM) was 54.2% and 67% and 62.5%. For the same compound, the IC50 (curve of compound) was over 1 µM.
